Assay results as given in patent publication US11246907B2, “Immunosuppressive agents and their use in therapy” (Norwegian University of Science and Technology, priority 2013, dated 2022).

How the values were obtained:
monocytes = test: Annexin staining / flow cytometry of monocytes (apoptosis); type: cell-based, human; settings: 4 hours, monocytes
Procedure: Annexin staining was used to determine cell viability and cells were counted using flow cytometry.
Peripheral blood […] were isolated from A+ buffy coats (Blood Bank, St. Olav's University Hospital) by density gradient centrifugation (Lymphoprep; Axis-Shield PoC, Oslo, Norway). The adherent cell fraction after 90 minute incubation, termed monocytes, were washed twice with HANKS and maintained in RPMI 1640 supplemented with 2 mM glutamine, […] gentamicin and 25% heat-inactivated HS over-night. Cells were cultured at 37° C. in a humidified atmosphere of 5% CO2 over-night. […] An R11 peptide and no peptide treatment were used as controls. After 4 hours, the cells were washed once in PBS, and re-suspended in buffer as recommended by the manufacturer of the Annexin V-Pacific Blue kit (Invitrogen). Cells were identified monocytes according to size (FSC) and granularity (SSC).

[1] = test system: peripheral blood monocytes; test: Multiplex (27-plex) cytokine secretion of TLR-ligand stimulated peripheral blood monocytes; type: cell-based, human; settings: LPS or polyIC, 4 h; ATX-101 4 μM, SB203580 10 μM, LY294002 5 and 10 μM, SC66 1 μg/ml
Procedure: Measured cytokine levels were normalized to cytokine levels from monocytes stimulated with TLR ligand alone. A two fold or higher increase in cytokine level after TLR stimulation was defined as cytokine induction. […] Isolated monocytes were stimulated with 10 ng/ml LPS and 40 μg/ml polyIC alone and in combination with 4 μM ATX-101 for 4 h. […] DRAQS was used for nuclear staining. Bar, 5 μm.
Data is from one representative donor out of three; and (B-E) show multiplex analysis of cytokine levels produced by peripheral blood monocytes stimulated with 10 ng/ml LPS (B and D, same donor) and 40 μg/ml polyIC (C and E, same donor) after 4 h. (B and C) Stimulated-monocytes were treated with 4 μM ATX-101, 10 μM SB203580 (p38 MAPK inhibitor), and combination of ATX-101 and SB203580. (D and E) Stimulated-monocytes were treated with 4 μM ATX-101, 5 and 10 μM LY294002 (PI3K class I inhibitor), and combination of ATX-101 and LY294002. Measured cytokine levels were normalized to cytokine levels from monocytes stimulated with TLR ligand alone. A two fold or higher increase in cytokine level after TLR stimulation was defined as cytokine induction. # Value is too low to be visible in the column diagram; ? cytokine measurement was out of range. Data is from representative experiments out of two.
(§1) Measured cytokine levels were normalized to cytokine levels from monocytes stimulated with TLR ligand alone. A two fold or higher increase in cytokine level after TLR stimulation was defined as cytokine induction. ? Cytokine measurement was out of range. Data is from one experiment out of two.
Measured cytokine levels were normalized to cytokine levels from monocytes stimulated with TLR ligand alone. Data is from one donor. We obtained similar results for IL-6 secretion in two other donors.
as §1, with “# Value is too low to be visible in the column diagram; 0” for “?”
Peripheral blood mononuclear cells were isolated from A+ buffy coats (Blood Bank, St. Olav's University Hospital, Trondheim, Norway) by density gradient centrifugation (Lymphoprep; Axis-Shield PoC, Oslo, Norway). Mononucleated cells were seeded at 4 million cells/ml in serum-free RPMI 1640 supplemented with glutamine and gentamicin. After 60-90 min the adherent cell population was washed before cultured in medium with 10% heat-inactivated human serum (Blood Bank, St. Olav's University Hospital). ATX-101 (4 μM [Innovagen, Lund, Sweden]), ATX-A (4 μM, [Innovagen]) (ATX-A is represented in SEQ ID NO: 1206 and contains the motif RALVK (SEQ ID NO: 1207), which is not capable of interacting with PCNA), p38 inhibitor (SB203580, 10 μM, [Sigma-Aldrich]), PI3K inhibitor (LY294002, 5 and 10 μM, [Sigma-Aldrich]), and Akt inhibitor (Akt inhibitor XVIII SC66, 1 μg/ml, [Sigma-Aldrich]) were added in serum-free medium and incubated for 5 min before LPS (10 ng/ml, [Sigma-Aldrich]), polylC (40 μg/ml, [GE Healthcare, Little Chalfont, UK]), PAM3Cys (10 ng/ml, [Invivogen, San Diego, Calif., USA]) or R848 (10 μg/ml, [Invivogen]) were added in serum-containing medium. The cells were incubated for 4 h before the supernatants were harvested and frozen prior to further cytokine analysis by the 27-plex assay (Bio-Plex ProTM Human cytokine 27-plex assay).

| SMILES | Percentage of annexin positive cells (monocytes; 5μM peptide treatment) [%] | Percentage of annexin positive cells (monocytes; 10 μM peptide treatment) [%] | cytokine secretion from stimulated monocytes, single agent [1] |
| --- | --- | --- | --- |
| CC[C@H](C)[C@H](NC(=O)[C@H](CCCCN)NC(=O)[C@H](CCCNC(=N)N)NC(=O)[C@H](CCCCN)NC(=O)[C@H](CCCCN)NC(=O)[C@H](CCCCN)NC(=O)[C@H](Cc1c[nH]c2ccccc12)NC(=O)[C@@H]1CCCN1C(=O)[C@@H](NC(=O)[C@H](CC(C)C)NC(=O)[C@H](Cc1c[nH]c2ccccc12)NC(=O)[C@H](CCCNC(=N)N)NC(=O)[C@H](CC(=O)O)NC(=O)[C@@H](N)CCSC)C(C)C)C(=O)N[C@@H](CCCNC(=N)N)C(=O)N[C@@H](CCCNC(=N)N)C(=O)N[C@@H](CCCNC(=N)N)C(=O)N[C@@H](CCCNC(=N)N)C(=O)N[C@@H](CCCNC(=N)N)C(=O)N[C@@H](CCCNC(=N)N)C(=O)N[C@@H](CCCNC(=N)N)C(=O)N[C@@H](CCCNC(=N)N)C(=O)N[C@@H](CCCNC(=N)N)C(=O)N[C@@H](CCCNC(=N)N)C(=O)N[C@@H](CCCNC(=N)N)C(=O)O [ATX-P] | 65 | 81 |  |
| N=C(N)NCCC[C@H](NC(=O)[C@H](CCCNC(=N)N)NC(=O)[C@H](CCCNC(=N)N)NC(=O)[C@H](CCCNC(=N)N)NC(=O)[C@H](CCCNC(=N)N)NC(=O)[C@H](CCCNC(=N)N)NC(=O)[C@H](CCCNC(=N)N)NC(=O)[C@H](CCCNC(=N)N)NC(=O)[C@H](CCCNC(=N)N)NC(=O)[C@H](CCCNC(=N)N)NC(=O)[C@@H](N)CCCNC(=N)N)C(=O)O [R11, reference compound] | 55 | 56 |  |
| C[S+]([O-])c1ccc(-c2nc(-c3ccncc3)c(-c3ccc(F)cc3)[nH]2)cc1 (stereo not drawn) [SB203580, reference compound] |  |  | reduced cytokine secretion |
| O=C1/C(=C/c2ccncc2)CCC/C1=C\c1ccncc1 [SC66, reference compound] |  |  | reduces cytokine secretion of monocytes to or below the basal levels |
